Reference: paper PMC8296985, “A Covalent Calmodulin Inhibitor as a Tool to Study Cellular Mechanisms of K-Ras-Driven Stemness” (Frontiers in Cell and Developmental Biology, 2021)
Like-named read-outs stand apart in the source and are kept apart here.

How the values were obtained:
Hs 578T = experiment: 3D spheroid (tumorosphere) formation assay, low attachment, serum-free, alamarBlue; type: cell-based; settings: Homo sapiens
Experimental: (§1) 3D spheroid formation assays were performed in 96-well low-attachment, suspension culture plates (cat. no. 655185, Cellstar, Greiner Bio-One) under serum-free condition. About 1,000 (MDA-MB-231, NCI-H358, and MIA PaCa-2) or 2,500 (Hs 578T) cells per well were seeded in 50 μl of either an RPMI medium (cat. no. 52400-025, Gibco, Thermo Fisher Scientific) (MDA-MB-231, A375, and NCI-H358) or DMEM (cat. no. 41965-039, Gibco, Thermo Fisher Scientific) (Hs 578T and MIA PaCa-2), containing 0.5% MethoCult (cat. no. SF H4636, Stemcell technologies), 1x B27 (cat. no. 17504044, Gibco, Thermo Fisher Scientific), 25 ng/ml EGF (cat. no. E9644, Sigma-Aldrich), and 25 ng/ml FGF (cat. no. RP-8628, Thermo Fisher Scientific). Cells were cultured for 3 days and then treated with compounds or vehicle control (DMSO 0.1% v/v in growth medium) for another 3 days. The cells were supplemented with a fresh growth medium on the third day together with the drug treatment. For knockdown experiments, cells were seeded in 12-well plates and treated with either 50 nM scrambled siRNA (cat. no. 1022076, QIAGEN) or indicated concentrations of siRNAs. Next day, cells were collected by trypsinization and re-plated into 96-well plates for 3D spheroid suspension culture.
(§2) Spheroid formation efficiency was analyzed by an alamarBlue assay reagent (cat. no. DAL1100, Thermo Fisher Scientific). A 10% final volume of the alamarBlue reagent was added to each well of the plate and incubated for 4 h at 37°C. Then the fluorescence intensity was measured using the FLUOstar OPTIMA plate reader (BMG Labtech, Germany) with an excitation wavelength of 560 ± 5 nm and an emission wavelength of 590 ± 5 nm.
(§3) To quantitatively profile the drug sensitivity with a more robust parameter than the IC50 or EC50 values, the drug sensitivity score (DSS) analysis was employed. DSS values are essentially normalized area under the curve (AUC) measures of dose-response inhibition data ([Yadav et al., 2014]). Drug response data files (in Excel) ready for online analysis were prepared according to the example file obtained from the DSS pipeline website, called Breeze^1 ([Potdar et al., 2020]). Either raw fluorescence intensity measurements or normalized % inhibition data (for BRET assay analysis) were uploaded.
(§4) DSS3 was employed to emphasize drugs that obtain their response area over a relatively wide dose window, as compared to drugs that show increased response only at the higher end of the concentration range. After logistic fitting of the dose-response inhibition data, the area under the curve (AUC) was determined as the exact solution. A 10% minimal activity threshold (t) was set. The maximum (Cmax) and minimum (Cmin) concentrations were used for screening of the inhibitors, with Cmax = x2 and x1 concentration with minimal activity t.

MDA-MB-231 = experiment: as above; type: cell-based; settings: for IC50: Homo sapiens; for KRAS/HRAS mutant cell line DSS3 ratio: MDA-MB-231 vs Hs 578T 3D spheroid formation, 0.6–40 μM, numbers above bars Fig. 1A,B
Experimental: as §1, §2, §3, §4

K-RasG12V/CaM = target: T1, K-RasG12V/CaM (Homo sapiens, UniProt P0DP23); experiment: Rluc8-K-RasG12V/GFP2-CaM interaction BRET in HEK293-EBNA cells; type: cell-based
T1 construct: expressed in transfected cells; host or cells: HEK293-EBNA
Experimental: (§5) BRET assays were essentially performed as described by others ([Lavoie et al., 2013]; [Bery et al., 2018]). About 100,00–150,000 HEK293-EBNA ([Meissner et al., 2001]) cells were seeded per well of a 12-well plate in 1 ml of DMEM containing 10% FBS and 2 mM L-glutamine and were grown for 24 h. Next day, Rluc8-tagged donor and GFP2-tagged acceptor constructs were transfected into cells using a jetPRIME transfection reagent (cat. no. 114-75, Polyplus). Each well was transfected with about 1 μg of plasmid DNA using 3 μl of the jetPRIME reagent. For BRET donor saturation titration experiments, the concentration of donor plasmid (25 ng) was kept constant, and the concentration of acceptor plasmid was increased from 0 to 500 ng for RasG12V BRET pairs and 0–1,000 ng for K-Ras/CaM BRET pairs. The empty pcDNA3.1(-) plasmid was used to top-up the total DNA load per transfection. After 24 h of transfection, cells were treated with compounds or vehicle control (DMSO 0.2% v/v in a growth medium) at the specified concentration for 24 h or the stipulated time period in case of the time-course experiments. The cells from one well of a 12-well plate were collected, washed, and re-plated in PBS (cat. no. 14190-094, Gibco, Thermo Fisher Scientific) on flat bottom, white 96-well plates (cat. no. 236108, Nunc, Thermo Fisher Scientific) as four technical replicates containing 90 μl of cell suspension per well. Then fluorescence intensity followed by BRET readings were carried out on a Clariostar (BMG Labtech) plate reader at 25°C. The fluorescence intensity (RFU) of GFP2 was measured with excitation at 405 ± 10 nm and emission 515 ± 10 nm; it is proportional to the acceptor concentration [acceptor]. BRET readings were taken well by well by adding 10 μl of 100 μM coelenterazine 400a (cat. no. C-320, GoldBio), the Rluc8 substrate to each well (final concentration of 10 μM) using the injector present in the plate reader. Luminescence emission intensities were simultaneously recorded at 410 ± 40 nm (RLU, proportional to [donor]) and 515 ± 15 nm (BRET signal).
(§6) The raw BRET ratio was calculated as the BRET signal measured at 515 nm divided by the emission signal measured at 410 nm (RLU). The BRET ratio was obtained by subtracting the raw BRET ratio by a background BRET signal measured for cells expressing only the donor ([Bacart et al., 2008]) as indicated in the formula below:
(§7) For BRET donor saturation titration experiments, the BRET ratio was plotted against the [acceptor]/[donor] ratio. Technical repeat data points were averaged, and data points from all biological repeats were collected into one graph for subsequent fitting. The BRET ratio vs. relative expression data were fitted using a binding saturation equation in the Prism (GraphPad) software to obtain BRETmax and BRET50 using the equation y=BRETmax×x/BRET50+x , where x is the relative expression and y is the BRET ratio. BRETmax represents the maximum saturation BRET signal and depends on the structural parameters (distance, orientation) of the BRET complex. BRET50 corresponds to the ratio of the acceptor construct over the donor construct required to attain 50% of the maximum BRET signal and is a measure of the effective relative affinity between the interacting BRET pair ([Marullo and Bouvier, 2007]).

calmodulin (CaM) = calmodulin (CaM) (Bos taurus, UniProt P62157); experiment: Fluorescence polarization assay, displacement of F-PMCA peptide from CaM; settings: for kinact/KI: read-out: k2/Ki second-order rate constant
[1] = target: T2, mutCaM (CaM with K75Q, K77Q, and K148Q mutations) (Homo sapiens, UniProt P0DP23, K76Q/K78Q); experiment: Fluorescence polarization assay with F-CaMKII peptide and His-mutCaM; type: binding; settings: 50 nM His-mutCaM, 5 nM F-CaMKII, compared to wt CaM
T2 construct: made in house; host or cells: E. coli BL21 Star (DE3)pLysS
Experimental: Our numbering of CaM follows ([Kong Au and Chow Leung, 1998]) with Ala being the first amino acid in human CaM, as the N-terminal methionine of CaM is removed in most organisms ([Halling et al., 2016]). […] At A600 of 0.6–0.8, the culture was induced with 0.5 mM of isopropyl β-D-thiogalactopyranoside and expressed for 16 h at 25°C. Cells were collected by centrifugation and incubated on ice for 30 min. The cell suspension was sonicated in a lysis buffer (20 mM HEPES, pH 7.6, 150 mM NaCl, 5 mM MgCl2, 0.5 mg/ml lysozyme, and DNase I). The lysates were clarified by centrifugation at 18,000 g for 30 min at 4°C. The soluble fractions were subjected to protein purification.

Chemical stability note = type: physicochemical
HeLa cells = experiment: Centrosome number / multipolar phenotype in synchronized HeLa cells expressing mCherry-CaM; type: cell-based; settings: 2 h; calmidazolium 20 μM, 1 50 μM, with MG132 10 μM
Experimental: To evaluate the effect of compounds on centrosome numbers during mitosis, HeLa cells were seeded in 6-well plates onto sterile coverslips and cotransfected with 0.5 μg of pmCherry-CaM and 1.5 μg pEGFP-Centrin1 plasmids using 4 μl of jetPRIME. Twenty-four hours after the transfection, cells were synchronized with 60 ng/ml of nocodazole for 16 h. After the removal of nocodazole, the cells were treated with the […] MG132 (10 μM) to block the cells in metaphase and either calmidazolium (20 μM), 1 (50 μM), or DMSO (0.5%) for 2 h. Cells were then fixed with 4% paraformaldehyde in PBS for 10 min at ambient temperature. After washing with PBS-Tween 0.05%, DNA was stained with a 1 μg/ml solution of DAPI diluted in PBS for 10 min. Coverslips were mounted on glass slides using Vectashield, and images were captured on a spinning disk confocal microscope. Images were analyzed with the ImageJ software, and the number of transfected mitotic cells with multipolar and normal bipolar phenotypes was counted (between 35 and 70 cells per test condition). The percentage multipolar vs. bipolar cells was computed to generate the plot using the Prism software.

CaM = target: CaM; design: method as in Manoharan et al., 2019; settings: ref Manoharan et al., 2019; cited from earlier work
K-RasG12V = K-RasG12V nanoclustering-BRET assay in HEK293-EBNA cells; type: cell-based; settings: 24 h; calmidazolium 20 μM, OphA 2.5 μM, prostratin 10 μM, mevastatin 10 μM, benzazulenones 20 μM
Experimental: as §5, §6, §7
When applying the DSS analysis to nanoclustering-BRET data, we used mevastatin (10 μM) to obtain the asymptote parameter (a) for the maximal inhibition effect, as it prevents the prenylation of Ras proteins, their plasma membrane trafficking, and therefore nanoclustering. Otherwise, normalized BRET ratio data were converted to % inhibition and then subsequently uploaded onto the Breeze site (see text footnote 1).

[2] = 72 h, Hs 578T (H-RasG12D) 3D tumorosphere, 3 days treatment, read-out: IC50
[3] = Hs 578T 3D tumorosphere, log scale, read-out: logIC50 ± SD (converted)
[4] = 72 h, MDA-MB-231 (K-RasG13D) 3D tumorosphere, 3 days treatment, read-out: IC50
[5] = MDA-MB-231 3D tumorosphere, log scale, read-out: logIC50 ± SD (converted)

IC50 (Hs 578T; [2]) [µM]	IC50 (Hs 578T; [3]) [µM]	IC50 (MDA-MB-231; [4]) [µM]	IC50 (MDA-MB-231; [5]) [µM]	IC50 (K-RasG12V/CaM; 24-h exposure, A/D plasmid ratio 9/1, read-out: IC50 of Rluc8-K-RasG12V/GFP2-CaM BRET signal) [µM]	Kd (calmodulin (CaM)) [µM]	Ki (calmodulin (CaM)) [µM]	kinact/KI (calmodulin (CaM)) [M⁻¹ s⁻¹]	affinity for CaM relative to OphA (calmodulin (CaM); after 24-h incubation, higher affinity than OphA) [fold]	chemical stability (Chemical stability note)	effect on Rluc8-K-RasG12V/GFP2-CaM BRET signal, single concentration (K-RasG12V/CaM; calmidazolium 20 μM, prostratin 20 μM, OphA 5 μM)	SMILES	KRAS/HRAS mutant cell line DSS3 ratio (MDA-MB-231)	binding to mutCaM over time [1]	multipolar phenotype (multiple mCherry-CaM-positive centrosomes) (HeLa cells)	Kd (CaM) [µM]	K-Ras selective reduction of nanoclustering-BRET (K-Ras vs H-Ras) (K-RasG12V) [fold]
10.6	10.5	32.4	31.6	70 ± 11	3.1	39	2.5	–	–	–	Cc1c(N2CCCCC2)c2c(=O)c(C(F)(F)F)cc3ccc(C(C)C)cc1c32 [Compound 8]	1.5	same binding affinity for wt CaM and mutCaM over time	–	–	–
25.8	25.1	35	34.7	–	0.25	11	11.7	15	chemically not as stable	–	CC(C)c1ccc2cc(C(F)(F)F)c(=O)c3c(N4CCN(C)CC4)c(C=O)c(c1)c23 [Compound 3]	6.0	–	–	–	–
–	–	–	–	–	–	–	–	–	–	significantly reduced the BRET signal	Clc1ccc(C(c2ccc(Cl)cc2)n2cc[n+](CC(OCc3ccc(Cl)cc3Cl)c3ccc(Cl)cc3Cl)c2)cc1 (stereo not drawn) [calmidazolium]	–	–	increased fraction of multipolar cells	0.0135	1.5
